Patent publication US20260001914A1, “MACROCYCLIC PEPTIDES TARGETING KRAS” (Merck Sharp & Dohme LLC, priority 2022, published 2026)
*1 amine or outer side, *2 acyl side, *3 side chain or, on linkers, in order; H or OH if unused. Where a SMILES comes first, the peptide text is derived from it. Bridges are numbered along the chain shown (N, C = ends). [ ]: non-standard residue; d: D form. The star is where a group is joined. NMeNva(5-imidazol-1-yl) = CN[C@@H](CCCn1ccnc1)C(=O)O; Phe(4-guanidino) = N=C(N)Nc1ccc(C[C@H](N)C(=O)O)cc1; X59 = O=C([C@H](Cc1ccc(CN2CCCC2)cc1)N[*:1])[*:2]; Ala(pyrimidin-5-yl) = N[C@@H](Cc1cncnc1)C(=O)O; NMe3Pal(6-Me) = CN[C@@H](Cc1ccc(C)nc1)C(=O)O; NMe3Pal(5-F) = CN[C@@H](Cc1cncc(F)c1)C(=O)O; X39 = CN([C@@H](Cc1cccnc1F)C(=O)[*:2])[*:1]; X25 = O=C([C@H](Cc1ccc(F)nc1)N[*:1])[*:2]; X3 = CN([C@@H](Cc1cncnc1)C(=O)[*:2])[*:1]; X69 = O=C([C@H]1CC[C@@H](N[*:1])C1)[*:2]; Ethyl(2-pyrrolidin-1-yl) = C1CCN(CC*)C1; X11 = CC(C)(F)CC[C@H](N[*:1])C(=O)[*:2]; Nle(5,5-F2) = CC(F)(F)CC[C@H](N)C(=O)O; Phe(4-F) = N[C@@H](Cc1ccc(F)cc1)C(=O)O; 1Nal = N[C@@H](Cc1cccc2ccccc12)C(=O)O; NHCH2CH2SCH2CO = O=C(CSCCN[*:1])[*:2]; X35 = CN([C@@H](CCCF)C(=O)[*:2])[*:1]; Phe(2-F) = N[C@@H](Cc1ccccc1F)C(=O)O; X31 = O=C([C@H](CCC1CC1)N[*:1])[*:2]; NMe3Pal = CN[C@@H](Cc1cccnc1)C(=O)O; X1 = O=C(C12CC(CN[*:1])(C1)C2)[*:2]; Ala(cPr) = N[C@@H](CC1CC1)C(=O)O; NMeF = CN[C@@H](Cc1ccccc1)C(=O)O; PhLac = O=C(O)[C@@H](O)Cc1ccccc1; 3Pal = N[C@@H](Cc1cccnc1)C(=O)O; 4Pal = N[C@@H](Cc1ccncc1)C(=O)O; Ahp(2) = CCCCC[C@H](N)C(=O)O; Cba = N[C@@H](CC1CCC1)C(=O)O; hLeu = CC(C)CC[C@H](N)C(=O)O; NMeS = CN[C@@H](CO)C(=O)O; NMeA = CN[C@@H](C)C(=O)O; Nle = CCCC[C@H](N)C(=O)O; Nva = CCC[C@H](N)C(=O)O; AEEA = NCCOCCOCC(=O)O

Target: KRAS-G12D protein (Homo sapiens, UniProt P01116, G12D)
Sequence (P01116 1-188 isoform P01116-2 G12D): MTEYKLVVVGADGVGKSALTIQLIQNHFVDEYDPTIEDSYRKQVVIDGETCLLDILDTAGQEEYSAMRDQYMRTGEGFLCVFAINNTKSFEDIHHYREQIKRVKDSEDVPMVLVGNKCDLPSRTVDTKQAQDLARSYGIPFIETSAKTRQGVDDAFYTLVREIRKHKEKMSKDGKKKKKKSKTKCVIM
Experiment: SOS-mediated nucleotide exchange assay (BODIPY-GDP / Tb-streptavidin TR-FRET)
Format: biochemical

SMILES	EC50 [nM]
CCCC[C@@H]1NC(=O)[C@H](Cc2ccccc2F)NC(=O)[C@H](CC(C)C)NC(=O)[C@H](Cc2cncnc2)NC(=O)[C@H](C)N(C)C(=O)[C@H](Cc2ccccc2)OC(=O)C23CC(CNC(=O)[C@H](Cc4cccnc4)N(C)C1=O)(C2)C3 [compound 129, cyclo(FLac-NMeA-PyrimAla-L-Phe2F-Nle-NMe3Pal-amBCP)] (cyclo([PhLac][NMeA][Ala(pyrimidin-5-yl)]L[Phe(2-F)][Nle][NMe3Pal][X1]))	4.38
CC(C)CC[C@@H]1NC(=O)[C@H](Cc2ccccc2F)NC(=O)[C@H](CC2CC2)NC(=O)[C@H](Cc2cncnc2)NC(=O)[C@H](C)N(C)C(=O)[C@H](Cc2ccccc2)OC(=O)C23CC(CNC(=O)[C@H](Cc4cccnc4F)N(C)C1=O)(C2)C3 [compound 336, cyclo(FLac-NMeA-PyrimAla-cPrA-Phe2F-hL-NMe3Pal2F-amBCP)] (cyclo([Ala(cPr)][Phe(2-F)][hLeu][X39][X1][PhLac][NMeA][Ala(pyrimidin-5-yl)]))	5
CCCC[C@@H]1NC(=O)[C@H](Cc2ccc(F)nc2)NC(=O)[C@H](C)N(C)C(=O)[C@H](Cc2ccccc2)OC(=O)C23CC(CNC(=O)[C@H](Cc4cccnc4)N(C)C(=O)[C@H](CCCC)NC(=O)[C@H](Cc4ccccc4F)NC1=O)(C2)C3 [compound 235, cyclo(FLac-NMeA-4F3Pal-Nle-Phe2F-Nle-NMe3Pal-amBCP)] (cyclo([NMe3Pal][X1][PhLac][NMeA][X25][Nle][Phe(2-F)][Nle]))	18.7
CON=C1C[C@@H](Cc2ccccc2)C(=O)N(C)[C@@H](C)C(=O)N[C@@H](Cc2cncnc2)C(=O)N[C@@H](CC2CC2)C(=O)N[C@@H](Cc2ccccc2F)C(=O)N[C@@H](CCC(C)(F)F)C(=O)N(C)[C@@H](Cc2ccccc2)C(=O)NCC23CC1(C2)C3 (single isomer, unassigned) [compound 178, cyclo(CPhe-NMeA-PyrimAla-cPrA-Phe2F-Nle3F2-NMeF-MeOximamBCP)]	1.7
CCCC[C@@H]1NC(=O)[C@H](Cc2cccnc2)NC(=O)[C@H](COC)N(C)C(=O)[C@H](Cc2ccccc2)OC(=O)C23CC(CNC(=O)[C@H](Cc4cccnc4)N(C)C(=O)[C@H](CCCC)NC(=O)[C@H](Cc4ccccc4F)NC1=O)(C2)C3 [compound 255, cyclo(FLac-nMeSMe-3Pal-Nle-Phe2F-Nle-NMe3Pal-amBCP)] (cyclo([3Pal][Nle][Phe(2-F)][Nle][NMe3Pal][X1][PhLac][NMeS](Me)))	6410
CCCC[C@@H]1NC(=O)[C@H](Cc2ccc(CN3CCCC3)cc2)NC(=O)[C@H](CCCn2ccnc2)N(C)C(=O)[C@H](Cc2ccccc2)NC(=O)C23CC(CNC(=O)[C@H](Cc4cccnc4)N(C)C(=O)[C@H](CCCC)NC(=O)[C@H](Cc4ccccc4F)NC1=O)(C2)C3 [compound 263, cyclo(F-NMeNvaImid-Phe4cPyrr-Nle-Phe2F-Nle-NMe3Pal-amBCP)] (cyclo(F[NMeNva(5-imidazol-1-yl)][X59][Nle][Phe(2-F)][Nle][NMe3Pal][X1]))	42.1
C[C@H]1C(=O)N[C@@H](Cc2cncnc2)C(=O)N[C@@H](CC2CCC2)C(=O)N[C@@H](Cc2ccccc2F)C(=O)N[C@@H](CCC(C)(F)F)C(=O)N(C)[C@@H](Cc2ccccc2)C(=O)NCC23CC(C2)(C3)C(=O)O[C@@H](Cc2ccccc2)C(=O)N1C [compound 224, cyclo(FLac-NMcA-PyrimAla-cBuA-Phe2F-Nle3F2-NMeF-amBCP)] (cyclo([Cba][Phe(2-F)][Nle(5,5-F2)][NMeF][X1][PhLac][NMeA][Ala(pyrimidin-5-yl)]))	2.39
CCCC[C@@H]1NC(=O)[C@H](Cc2cccnc2)NC(=O)[C@H](C)N(C)C(=O)[C@H](Cc2ccccc2)OC(=O)C23CC(CNC(=O)[C@H](Cc4cncnc4)N(C)C(=O)[C@H](CCCC)NC(=O)[C@H](Cc4ccccc4F)NC1=O)(C2)C3 [compound 401, cyclo(FLac-NMeA-3Pal-Nle-Phe2F-Nle-NMeAlaPyrim-amBCP)] (cyclo([3Pal][Nle][Phe(2-F)][Nle][X3][X1][PhLac][NMeA]))	29
CCCCC[C@@H]1NC(=O)[C@H](Cc2ccc(O)cc2)NC(=O)[C@H](CC(C)C)NC(=O)[C@H](Cc2ccc(O)cc2)NC(=O)[C@H](CCCNC(=N)N)NC(=O)[C@H](Cc2ccccc2)NC(=O)CSC[C@@H](C(=O)NCCOCCOCC(N)=O)NC(=O)[C@H](Cc2ccccc2)N(C)C1=O [compound 57, cyclo(F-R-Y-L-Y-Ahp-NMeF-C3-ClAc)] ({CH2CO}-FRYLY[Ahp(2)][NMeF]C[AEEA]-NH2; thioether N-8)	482
C[C@H]1C(=O)N[C@@H](Cc2cccnc2)C(=O)N[C@@H](CC2CC2)C(=O)N[C@@H](Cc2ccccc2F)C(=O)N[C@@H](CCC(C)(C)F)C(=O)N(C)[C@@H](Cc2cncc(F)c2)C(=O)NCC23CC(C2)(C3)C(=O)O[C@@H](Cc2ccccc2)C(=O)N1C [compound 284, cyclo(FLac-NMeA-3Pal-cPrA-Phe2F-hL3F-NMe3Pal5F-amBCP)] (cyclo([3Pal][Ala(cPr)][Phe(2-F)][X11][NMe3Pal(5-F)][X1][PhLac][NMeA]))	2
C[C@H]1C(=O)N[C@@H](Cc2cncnc2)C(=O)N[C@@H](CC2CC2)C(=O)N[C@@H](Cc2ccccc2F)C(=O)N[C@@H](CCC2CC2)C(=O)N(C)[C@@H](Cc2ccccc2)C(=O)NCC23CC(C2)(C3)C(=O)O[C@@H](Cc2ccccc2)C(=O)N1C [compound 114, cyclo(FLac-NMeA-PyrimAla-cPrA-Phe2F-hcPrA-NMeF-amBCP)] (cyclo([Ala(cPr)][Phe(2-F)][X31][NMeF][X1][PhLac][NMeA][Ala(pyrimidin-5-yl)]))	2
CCCC[C@@H]1NC(=O)[C@H](Cc2ccncc2)NC(=O)[C@H](CCCNC(=N)N)NC(=O)[C@H](Cc2cccc3ccccc23)NC(=O)CSC[C@H](C(=O)O)NC(=O)[C@H](Cc2ccccc2)N(C)C(=O)[C@H](CCC)NC(=O)[C@H](Cc2ccc(O)cc2)NC1=O [compound 140, cyclo(INal-R-4Pal-Nle-Y-Nva-NMeF-dC-ClAc)] ({CH2CO}-[1Nal]R[4Pal][Nle]Y[Nva][NMeF][dC]-OH; thioether N-8)	1170
CCCC[C@@H]1NC(=O)[C@H](Cc2cccnc2)NC(=O)[C@H](CCCNC(=N)N)NC(=O)[C@H](Cc2ccccc2)OC(=O)C23CC(CNC(=O)[C@H](Cc4ccccc4)N(C)C(=O)[C@H](CCCC)NC(=O)[C@H](Cc4ccccc4F)NC1=O)(C2)C3 [compound 212, cyclo(FLac-R-3Pal-Nle-Phe2F-Nle-NMeF-amBCP)] (cyclo([PhLac]R[3Pal][Nle][Phe(2-F)][Nle][NMeF][X1]))	20.7
CCCC[C@@H]1NC(=O)[C@H](Cc2ccc(NC(=N)N)cc2)NC(=O)[C@H](CCCNC(=N)N)NC(=O)[C@H](Cc2cccc3ccccc23)NC(=O)CSC[C@H](C(=O)O)NC(=O)[C@H](Cc2ccccc2)N(C)C(=O)[C@H](CCCC)NC(=O)[C@H](Cc2ccc(O)cc2)NC1=O [compound 141, cyclo(INal-R-Phe4Gn-Nle-Y-Nle-NMeF-dC-ClAc)] ({CH2CO}-[1Nal]R[Phe(4-guanidino)][Nle]Y[Nle][NMeF][dC]-OH; thioether N-8)	16.8
CCCC[C@@H]1NC(=O)[C@H](Cc2cccnc2)NC(=O)[C@H](CCCNC(=N)N)NC(=O)[C@H](Cc2ccccc2)NC(=O)[C@H]2CC[C@H](C2)NC(=O)[C@H](Cc2ccccc2)N(C)C(=O)[C@H](CCCC)NC(=O)[C@H](Cc2ccc(OC)cc2)NC1=O [compound 202, cyclo(F-R-3Pal-Nle-TyrOMe-Nle-NMeF-dbhcLeu)] (cyclo(FR[3Pal][Nle]Y(Me)[Nle][NMeF][X69]))	949
CC(C)CC[C@@H]1NC(=O)[C@H](Cc2ccccc2F)NC(=O)[C@H](CC2CC2)NC(=O)[C@H](Cc2cccnc2)NC(=O)[C@H](C)N(C)C(=O)[C@H](Cc2ccccc2)OC(=O)C23CC(CNC(=O)[C@H](Cc4cncc(F)c4)N(C)C1=O)(C2)C3 [compound 283, cyclo(FLac-NMeA-3Pal-cPrA-Phe2F-hL-NMe3Pal5F-amBCP)] (cyclo([3Pal][Ala(cPr)][Phe(2-F)][hLeu][NMe3Pal(5-F)][X1][PhLac][NMeA]))	3
CC(C)CC[C@@H]1NC(=O)[C@H](Cc2ccccc2F)NC(=O)[C@H](CC2CC2)NC(=O)[C@H](Cc2cncnc2)NC(=O)[C@H](CCCF)N(C)C(=O)[C@H](Cc2ccccc2)OC(=O)C23CC(CNC(=O)[C@H](Cc4ccccc4)N(C)C1=O)(C2)C3 [compound 216, cyclo(FLac-NMeNvaF-PyrimAla-cPrA-Phe2F-hL-NMeF-amBCP)] (cyclo([Ala(cPr)][Phe(2-F)][hLeu][NMeF][X1][PhLac][X35][Ala(pyrimidin-5-yl)]))	26
CCCC[C@@H]1NC(=O)[C@H](Cc2ccc(OCCN3CCCC3)cc2)NC(=O)[C@H](C)N(C)C(=O)[C@H](Cc2ccccc2)OC(=O)C23CC(CNC(=O)[C@H](Cc4ccccc4)N(C)C(=O)[C@H](CCCC)NC(=O)[C@H](Cc4ccccc4F)NC1=O)(C2)C3 [compound 316, cyclo(FLac-NMeA-TyrOEtPyr-Nle-Phe2F-Nle-NMeF-amBCP)] (cyclo([NMeA]Y(Ethyl(2-pyrrolidin-1-yl))[Nle][Phe(2-F)][Nle][NMeF][X1][PhLac]))	7.34
CCCC[C@@H]1NC(=O)[C@H](Cc2cccnc2)NC(=O)[C@H](C)N(C)C(=O)[C@H](Cc2ccccc2)OC(=O)C23CC(CNC(=O)[C@H](Cc4ccc(C)nc4)N(C)C(=O)[C@H](CCCC)NC(=O)[C@H](Cc4ccccc4F)NC1=O)(C2)C3 [compound 402, cyclo(FLac-NMeA-3Pal-Nle-Phe2F-Nle-NMe3Pal4Me-amBCP)] (cyclo([3Pal][Nle][Phe(2-F)][Nle][NMe3Pal(6-Me)][X1][PhLac][NMeA]))	18
COc1ccc(C[C@@H]2NC(=O)[C@H](CC3CCC3)NC(=O)[C@H](Cc3cccnc3)NC(=O)[C@H](CCCNC(=N)N)NC(=O)[C@H](Cc3ccccc3)NC(=O)CSC[C@](C)(C(N)=O)NC(=O)[C@@H]3CCCCCC[C@H](NC2=O)C(=O)N3C)cc1 [SEQ ID NO: 188, cyclo(F-R-3Pal-cBuA-TyrOMe-RdHagNMeHag-aMeC-C1Ac)]	299
CCC[C@@H]1NC(=O)[C@H](Cc2ccc(OC)cc2)NC(=O)[C@H](CC(C)C)NC(=O)[C@H](Cc2ccncc2)NC(=O)[C@H](CCCNC(=N)N)NC(=O)[C@H](Cc2ccc(F)cc2)NC(=O)CSCCNC(=O)[C@H](Cc2ccccc2)N(C)C1=O [compound 88, cyclo(Phe4F-R-4Pal-L-TyrOMe-Nva-NMeF-Cysteamine-ClAc)] (cyclo([4Pal]LY(Me)[Nva][NMeF][NHCH2CH2SCH2CO][Phe(4-F)]R))	3010
